Reference: patent US20240327433A1, “PYRIMIDOPYRAN COMPOUND” (Medshine Discovery Inc., priority 2021, published 2024)
Where a name gives a salt, the structure may show the parent alone.

What was measured:
p-ERK in GP2D cells = assay: Assay of p-ERK inhibition in GP2D cells (HTRF); format: cell-based; details: 1 hour incubation
Protocol: The cell plate was inoculated in a carbon dioxide incubator at 37° C. overnight; • 2) 2 μL of the compound was weighed and added to 78 μL of the cell medium. After the mixture was mixed thoroughly, 20 μL of the solution of compound was weighed and added to the corresponding well of the cell plate. The cell plate was placed back to the carbon dioxide incubator and incubated for another 1 hour; • 3) After completion of the incubation, the cell supernatant was discarded. 50 μL of 1× cell lysate was added to each well. The mixture was incubated with shaking at room temperature for 30 minutes; • 4) Phospho-ERK1/2 Eu Cryptate antibody and Phospho-ERK1/2 d2 antibody were diluted 20-fold with detection buffer; • 5) 16 μL of cell lysate supernatant was weighed and added into each well of a new 384 white microwell plate, and then 2 μL of the diluted solution of Phospho-ERK1/2 Eu Cryptate antibody and 2 μL of the diluted solution of Phospho-ERK1/2 d2 antibody dilution were added. The mixture was incubated at room temperature for at least 4 hours; • 6) After completion of the incubation, HTRF was read with multi-label analyzer: excitation: 320 nm, emission: 615 nm, 665 nm; • 7). IC50 of the compounds to be assayed was calculated.

KRAS^G12D = KRAS^G12D (Homo sapiens (Human), UniProt P01116, G12D); assay: Assay of activity of inhibiting KRAS^G12D (TR-FRET, SOS/GTP nucleotide exchange); format: biochemical
Chain of KRAS^G12D (P01116-2 other isoform, or with tags, fused parts or gaps G12D): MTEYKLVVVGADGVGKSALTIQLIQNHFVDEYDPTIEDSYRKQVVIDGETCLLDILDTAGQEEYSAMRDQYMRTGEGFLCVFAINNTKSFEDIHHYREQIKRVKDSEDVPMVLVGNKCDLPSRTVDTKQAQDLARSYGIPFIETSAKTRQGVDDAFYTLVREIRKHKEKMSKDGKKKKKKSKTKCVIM
Protocol: 20 mL of 1000 mM HEPES, 20 mL of 500 mM EDTA, 10 mL of 5 M sodium chloride, 0.1 mL of 100% Tween 20, and 949.9 mL of water were weighed and formulated to 1 L of solution. The solution was sterilized by filtration and stored at 4° C.
20 mL of 1000 mM HEPES, 10 mL of 1000 mM magnesium chloride, 30 mL of 5 M sodium chloride, 0.05 mL of 100% Tween 20, and 939.95 mL of water were weighed and formulated to 1 L of solution. The solution was sterilized by filtration and stored at 4° C.
9.5 μL of 95 μM KRAS^G12D protein and 440.5 μL of KRAS nucleotide exchange buffer were weighed and mixed. The mixture was incubated at room temperature for 1 hour, and then formulated to […] of solution together with 8.4 μL of 17.9 μM Tb-SA, 1.8 μL of 5 mM Bodipy GDP and 9539.8 μL of KRAS assay buffer. After mixing, the solution was left to stand at room temperature for 6 hours, and stored at −80° C. • b. Assay reagents:
73.3 μL of KRAS/Bodipy GDP/Tb-SA mixture and 2126.7 μL of KRAS assay buffer were weighed and formulated to 2200 μL of solution.
1.59 μL of 166 μM SOS protein, 198 μL of 100 mM GTP and 2000.41 μL of KRAS assay buffer were weighed and formulated to 2200 μL of solution.
• 1) The concentration of a stock solution of the control compound was 1 mM, and the concentration of a stock solution of compounds to be assayed was 10 mM. […]

KRAS^G12D AsPC-1 = assay: Anti-cell proliferation effect in tumor cell line AsPC-1 (CellTiter-Glo 3D); format: cell-based; details: Homo sapiens, ASPC1, AsPC-1, 120 hours
Protocol: (§1) In this assay, the effect of the compounds on inhibiting cell proliferation was studied by detecting the effect of the compounds on the cell activity in vitro in the tumor cell lines AsPC-1 and GP2D.
(§2) The tumor cell lines were cultured in a 37° C., 5% CO2 incubator according to the culture conditions indicated in the culture method. Cells were passaged regularly, and cells in logarithmic growth phase were used for plating.
(§3) Cells were stained with trypan blue and viable cells were counted.
(§4) The cell concentration was adjusted to an appropriate concentration.
(§5) To each well of a ULA culture plate was added 135 μL of cell suspension. To the blank control well was added the same volume of culture medium without cells.
(§6) After plating, the ULA culture plate was immediately centrifuged at room temperature at 1000 rpm for 10 minutes. Note: After completion of the centrifugation, subsequent operations must be processed carefully to avoid unnecessary shocks.
(§7) The culture plate was incubated in a 37° C., 5% CO2, 100% relative humidity incubator overnight.
(§8) 10× compound working solution (10× working solution in DMSO) was formulated, and then to the ULA culture plate was add 15 μL of 10× compound working solution, and to the vehicle control and blank control was added 15 μL of DMSO-cell culture medium mixture, respectively. […]
(§9) The luminescent signal was detected on a 2104 EnVision plate reader. […]

KRAS^G12D GP2D = assay: Anti-cell proliferation effect in tumor cell line GP2D (CellTiter-Glo 3D); format: cell-based; details: 120 hours
Protocol: as §1, §2, §3, §4, §5, §6, §7, §8, §9

[1] = Pharmacokinetic study of oral and intravenously injected compounds in CD-1 mouse; format: in vivo
Protocol: To assay the pharmacokinetics of oral and intravenously injected compounds in CD-1 mouse. The assay compound was mixed with 5% DMSO+95% (10% HP-β-CD) aqueous solution. The mixture was vortexed and sonicated to prepare a clear solution of 0.5 mg/mL (intravenous) or a clear solution of 3 mg/mL (oral). The clear solution was filtered by a microporous membrane for use. […] Whole blood was collected for a certain period of time, and prepared to obtain plasma. Drug concentration was analyzed by LC-MS/MS method, and pharmacokinetic parameters were calculated by Phoenix WinNonlin software (Pharsight, USA).

[2] = male, CD-1, plasma, intravenous (IV), about 2 mg/kg
[3] = male, CD-1, plasma, oral (PO), about 30 mg/kg

Compound	IC50 (p-ERK in GP2D cells)	other results
Nc1cc(F)c(C(F)(F)F)c(C2Cc3nc(OC[C@@]45CCCN4C[C@H](F)C5)nc(N4CC5CCC(C4)N5)c3CO2)c1F (stereo partly shown) [Compound 22 hydrochloride]	2.7 nM	–
Nc1cc(Cl)c(Br)c(C2Cc3nc(OC[C@@]45CCCN4C[C@H](F)C5)nc(N4CC5CCC(C4)N5)c3CO2)c1F (stereo partly shown) [Compound 21 hydrochloride]	2.6 nM	–
Cc1cc(N)nc(C2Cc3nc(OC[C@@]45CCCN4C[C@H](F)C5)nc(N4CC5CCC(C4)N5)c3CO2)c1C(F)(F)F (stereo partly shown) [Compound 23 formate]	23.4 nM	–
C=Cc1c(C)cc(N)c(F)c1C1Cc2nc(OC[C@@]34CCCN3C[C@H](F)C4)nc(N3CC4CCC(C3)N4)c2CO1 (stereo partly shown) [Compound 19 hydrochloride]	17.5 nM	–
Cc1cc(N)c(F)c(C2Cc3nc(OC[C@@]45CCCN4C[C@H](F)C5)nc(N4CC5C=CC(C4)N5)c3CO2)c1C(F)(F)F (stereo partly shown) [Compound 7 hydrochloride]	1.1 nM	IC50 (KRAS^G12D): 0.1 nM
Cc1cc(N)c(F)c(C2Cc3nc(OC[C@@]45CCCN4C[C@H](F)C5)nc(N4CC5CCC(C4)N5)c3CO2)c1C1CC1 (stereo partly shown) [Compound 27 hydrochloride]	118 nM	–
Cc1cc(N)c(F)c(C2Cc3nc(OC[C@@]45CCCN4C[C@H](F)C5)nc(N4CC5CCC(C4)N5)c3CO2)c1Cl (stereo partly shown) [Compound 14 hydrochloride]	5.2 nM	–
Cc1cc(N)c(F)c(C2Cc3nc(OC[C@@]45CCCN4C[C@H](F)C5)nc(N4CC5CCC(C4)N5)c3CO2)c1Br (stereo partly shown) [Compound 15 hydrochloride]	8.4 nM	–
Cc1cc(N)c(F)c(C2Cc3nc(OC[C@@]45CCCN4C[C@H](F)C5)nc(N4CC5CC(C4)N5)c3CO2)c1C(F)(F)F (stereo partly shown) [Compound 2 hydrochloride]	–	IC50 (KRAS^G12D AsPC-1): 1860 nM; IC50 (KRAS^G12D GP2D): 332 nM
C#Cc1c(C)cc(N)c(F)c1C1Cc2nc(OC[C@@]34CCCN3C[C@H](F)C4)nc(N3CC4CCC(C3)N4)c2CO1 (stereo partly shown) [Compound 17]	27.1 nM	–
Cc1cc(N)c(F)c(C2Cc3nc(OC[C@@]45CCCN4C[C@H](F)C5)nc(N4CC5CCC(C4)N5)c3CO2)c1C#N (stereo partly shown) [Compound 18]	66.4 nM	–
Nc1ccc(C(F)(F)F)c([C@H]2Cc3nc(OC[C@@]45CCCN4C[C@H](F)C5)nc(N4CC5CCC(C4)N5)c3CO2)c1F (single isomer, unassigned) [Compound 20B]	1.3 nM	AUC(0-t) [1, 2]: 0.371 µM·h; C0 [1, 2]: 449 nM; Vd [1, 2]: 97.2 L/kg; clearance [1, 2]: 138 mL/min/kg; half-life [1, 2]: 672 min; AUC(0-inf) [1, 3]: 4.71 µM·h; Cmax [1, 3]: 2100 nM; half-life [1, 3]: 864 min; F ([1]; oral (PO), about 30 mg/kg, oral bioavailability): 85%
Cc1cc(N)c(F)c(C2Cc3nc(OC[C@@]45CCCN4C[C@H](F)C5)nc(N4CC5CCC(C4)N5)c3CO2)c1C (stereo partly shown) [Compound 25 hydrochloride]	96.4 nM	–
Oc1cc(C2Cc3nc(OC[C@@]45CCCN4C[C@H](F)C5)nc(N4CC5CCC(C4)N5)c3CO2)c2ccccc2c1 (stereo partly shown) [Compound 8 hydrochloride]	78 nM	IC50 (KRAS^G12D): 78.3 nM
Cc1cc(N)c(F)c(C2Cc3nc(OC[C@@]45CCCN4C[C@H](F)C5)nc(N4CC5CCC(C4)N5)c3CO2)c1I (stereo partly shown) [Compound 16 hydrochloride]	2.9 nM	–
Cc1cc(N)c(F)c(C2Cc3nc(OC[C@@]45CCCN4C[C@H](F)C5)nc(N4CC5CCC(C4)N5)c3CO2)c1C(F)(F)C(F)(F)F (stereo partly shown) [Compound 12 formate]	20.9 nM	–
